≈ marks a conversion by molar mass, not a printed value.
Tests used:
[1] = Approximate solubility in water at different pH values
[2] = physchem

solubility ([1]; pH 1, simulated gastric fluid) [µg/mL]	solubility ([1]; pH 4.5, aqueous buffer) [µg/mL]	solubility ([1]; pH 6, aqueous buffer) [µg/mL]	Compound	solubility ([2]; pH 1, simulated gastric fluid) [µg/mL]	solubility ([2]; pH 2, simulated gastric fluid) [µg/mL]	solubility ([2]; pH 4.5, aqueous buffer) [µg/mL]	solubility ([2]; pH 6, aqueous buffer) [µg/mL]
26100 (≈ 34.9 mM)	3900 (≈ 5.21 mM)	3300 (≈ 4.41 mM)	CC[C@H]1OC(=O)[C@H](C)[C@@H](O[C@H]2C[C@@](C)(OC)[C@@H](O)[C@H](C)O2)[C@H](C)[C@@H](O[C@@H]2O[C@H](C)C[C@H](N(C)C)[C@H]2O)[C@](C)(OC)C[C@@H](C)C(=O)[C@H](C)[C@@H](O)[C@]1(C)O [clarithromycin]	–	–	–	–
–	–	–	CC[C@H]1OC(=O)[C@H](C)[C@@H](O[C@H]2C[C@@](C)(OC)[C@@H](O)[C@H](C)O2)[C@H](C)[C@@H](O[C@@H]2O[C@H](C)C[C@H](N(C)C)[C@H]2O)[C@](C)(O)C[C@](C)(F)C(=O)[C@H](C)[C@@H](O)[C@]1(C)O [flurithromycin]	22000 (≈ 29.3 mM)	11800 (≈ 15.7 mM)	4200 (≈ 5.59 mM)	300 (≈ 0.399 mM)

From patent EP2283824B1, “Compositions and formulations based on swellable matrices for sustained release of poorly soluble drugs such as clarithromycin” (Special Product's Line S.p.A., priority 2009, dated 2011)
